In PubChem BioAssay (NCI) one finds GI50 and TGI data, which are given here for seven compounds.

The GI50 is the concentration that inhibits growth by half. The term TGI denotes the concentration at which net growth stops. A higher TGI goes with less potent growth arrest.

Some test systems named below: PC-3 prostate; NCI-H23 lung; UACC-62 melanoma; OVCAR-5 ovarian; SK-MEL-5 melanoma; SNB-19 CNS; SK-MEL-2 melanoma; SK-OV-3 ovarian; U251 CNS; M14 melanoma.
What all share (assay): DTP human tumour cell line panel, 48 h

Each structure is given as a SMILES string. Where “and” joins values, the source holds several entries; their conditions need not be identical. Identical values can stand only once.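 96-well plates; 48 h exposure; 5 concentrations. Endpoints by linear interpolation between flanking doses. Not reached: highest tested concentration assigned. GI50 marks 50% less growth. TGI: concentration producing complete growth inhibition.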

On to `O=C(O)c1cc(O)c2c(c1)C(C1c3cc(C(=O)O)cc(O)c3C(=O)c3c(OC4OC(CO)C(O)C(O)C4O)cccc31)c1cccc(OC3OC(CO)C(O)C(O)C3O)c1C2=O` (centres undefined), for which the GI50 with PC-3 prostate, with NCI-H23 lung, with UACC-62 melanoma, in the experiment on OVCAR-5 ovarian, in the experiment with SK-MEL-5 melanoma and in the experiment with SNB-19 CNS was more than 100 µM throughout. The GI50 in the experiment with SK-MEL-2 melanoma, in the experiment on SK-OV-3 ovarian, in the experiment with U251 CNS and in the experiment on M14 melanoma was more than 100 µM each time. Besides, the TGI with PC-3 prostate, with NCI-H23 lung, with UACC-62 melanoma, with OVCAR-5 ovarian, with SK-MEL-5 melanoma and with SNB-19 CNS was more than 100 µM in each case. Moreover, the TGI in the experiment with SK-MEL-2 melanoma, with SK-OV-3 ovarian, in the experiment on U251 CNS and in the experiment on M14 melanoma was more than 100 µM each time.

`N#CC1(C2SCCS2=O)C2=C(C(=O)c3ccccc3C2=O)N2CCCC21` (centres undefined): the TGI was 14.7 µM with PC-3 prostate; 3.51 µM in the experiment with NCI-H23 lung; 6.54 µM with UACC-62 melanoma; 9.39 µM in the experiment with OVCAR-5 ovarian; 1.1 µM in the experiment on SK-MEL-5 melanoma; 16.8 µM in the experiment with SNB-19 CNS. For the same compound, the TGI in the experiment with SK-MEL-2 melanoma came to 4.12 µM; in the experiment with SK-OV-3 ovarian it was 51.7 µM; in the experiment with U251 CNS, 11.3 µM; with M14 melanoma, 2.77 µM.

Take `O=C(Nc1cccc(Cl)c1)c1cc2ccccc2cc1O`: the GI50 in the experiment with PC-3 prostate was 1.73 µM and 2 µM; in the experiment with NCI-H23 lung, 1.76 µM and 1.03 µM; in the experiment with UACC-62 melanoma it was 1.55 µM and 0.657 µM; in the experiment with OVCAR-5 ovarian it was 6.59 µM and 1.98 µM; in the experiment on SK-MEL-5 melanoma, 1.24 µM and 0.661 µM; in the experiment with SNB-19 CNS, 2.94 µM and 2.37 µM. Further, the GI50 in the experiment on SK-MEL-2 melanoma is 0.415 µM and 2.94 µM; in the experiment with SK-OV-3 ovarian it was 1.23 µM; in the experiment on U251 CNS, 1.74 µM; with M14 melanoma it was 3.67 µM and 2.24 µM. For the same compound, the TGI in the experiment with PC-3 prostate was more than 100 µM; in the experiment on UACC-62 melanoma, more than 100 µM; in the experiment with OVCAR-5 ovarian, more than 100 µM; in the experiment on SK-MEL-5 melanoma, 4.15 µM and 2.5 µM; in the experiment with SNB-19 CNS it was more than 100 µM; with SK-MEL-2 melanoma, 4.63 µM and 40.8 µM. Further, the TGI in the experiment on SK-OV-3 ovarian was 4.95 µM; in the experiment with U251 CNS it was 19.6 µM and 8.44 µM; in the experiment with M14 melanoma, more than 100 µM.

For the compound `O=C(CN(C1CCCCC1)C1CCCCC1)Nc1ccc(S(=O)(=O)c2ccc(NC(=O)CN(C3CCCCC3)C3CCCCC3)cc2)cc1`, the GI50 in the experiment with PC-3 prostate is 0.985 µM; with NCI-H23 lung, 1.02 µM; with UACC-62 melanoma, 0.595 µM; with OVCAR-5 ovarian, 1.13 µM; in the experiment on SK-MEL-5 melanoma, 0.395 µM; in the experiment with SNB-19 CNS it was 0.656 µM. The GI50 in the experiment on SK-MEL-2 melanoma was 1.35 µM; with SK-OV-3 ovarian it was 8.64 µM; in the experiment with U251 CNS, 0.234 µM; with M14 melanoma, 0.373 µM. In addition, the TGI in the experiment with PC-3 prostate turned out to be 2.35 µM; in the experiment with NCI-H23 lung, 2.61 µM; in the experiment on UACC-62 melanoma, 2.05 µM; in the experiment with OVCAR-5 ovarian it was 2.52 µM; with SK-MEL-5 melanoma it was 1.65 µM; in the experiment with SNB-19 CNS it was 2.18 µM. For the same compound, the TGI with SK-MEL-2 melanoma was determined as 3.5 µM; in the experiment with SK-OV-3 ovarian it was 21.6 µM; with U251 CNS it was 0.742 µM; with M14 melanoma, 1.69 µM.

On to `Cc1cc(NC(=O)c2ccc(C)c(Nc3nccc(-c4cccnc4)n3)c2)cc(-n2cnc(C)c2)c1`, for which the GI50 in the experiment with PC-3 prostate was 4.76 µM; in the experiment on NCI-H23 lung it was 9.44 µM; with UACC-62 melanoma, 2.92 µM; in the experiment on OVCAR-5 ovarian it was 3.54 µM; in the experiment on SK-MEL-5 melanoma, 5.04 µM; in the experiment with SNB-19 CNS it was 5.28 µM. The GI50 is 5.03 µM with SK-MEL-2 melanoma, 1.73 µM with SK-OV-3 ovarian, 1.99 µM with U251 CNS and 2.71 µM in the experiment with M14 melanoma. Besides, the TGI in the experiment with PC-3 prostate is 17.3 µM; in the experiment with NCI-H23 lung, more than 34.1 µM; in the experiment on UACC-62 melanoma, 11 µM; in the experiment with OVCAR-5 ovarian, 10.5 µM; in the experiment on SK-MEL-5 melanoma, 12.7 µM; with SNB-19 CNS, 18.1 µM. Besides, the TGI with SK-MEL-2 melanoma was 12.9 µM; in the experiment on SK-OV-3 ovarian, 4.93 µM; with U251 CNS, 7.61 µM; with M14 melanoma, 10.1 µM.

Consider `CN(C)c1ccc2nc3ccc(=O)cc-3sc2c1`, for which the GI50 in the experiment on PC-3 prostate was 0.0726 µM; with NCI-H23 lung, 0.82 µM; in the experiment with UACC-62 melanoma it was 1.32 µM; in the experiment with OVCAR-5 ovarian, 4.68 µM; in the experiment on SK-MEL-5 melanoma, 0.173 µM; with SNB-19 CNS, 2.63 µM. For the same compound, the GI50 with SK-MEL-2 melanoma was 3.51 µM; with SK-OV-3 ovarian, 6.02 µM; in the experiment on U251 CNS it was 0.72 µM; in the experiment with M14 melanoma, 0.408 µM. Further, the TGI in the experiment on PC-3 prostate is more than 100 µM; in the experiment with NCI-H23 lung, more than 100 µM; in the experiment on UACC-62 melanoma it was 8.69 µM; in the experiment with OVCAR-5 ovarian, more than 70.2 µM; in the experiment with SK-MEL-5 melanoma it was 0.495 µM; in the experiment on SNB-19 CNS, more than 100 µM. For the same compound, the TGI in the experiment with SK-MEL-2 melanoma is 25.8 µM; in the experiment on SK-OV-3 ovarian, more than 100 µM; in the experiment on U251 CNS, 32.2 µM; in the experiment with M14 melanoma it was 10.8 µM.

Turning to `NC(=O)C(=CNc1nc(-c2ccc(Cl)c(Cl)c2)cs1)C(N)=O`, the GI50 in the experiment on PC-3 prostate was more than 100 µM; in the experiment on NCI-H23 lung it was more than 100 µM; in the experiment on UACC-62 melanoma, more than 100 µM; in the experiment on OVCAR-5 ovarian, more than 100 µM; with SK-MEL-5 melanoma, 71.6 µM; in the experiment with SNB-19 CNS it was more than 100 µM. Also, the GI50 in the experiment on SK-MEL-2 melanoma was 75.6 µM; in the experiment on SK-OV-3 ovarian it was more than 100 µM; in the experiment with U251 CNS it was 65 µM; in the experiment on M14 melanoma, more than 100 µM. In addition, the TGI with PC-3 prostate, in the experiment on NCI-H23 lung, with UACC-62 melanoma, in the experiment on OVCAR-5 ovarian, in the experiment with SK-MEL-5 melanoma and in the experiment with SNB-19 CNS was more than 100 µM throughout. Moreover, the concentration for total growth inhibition (TGI) with SK-MEL-2 melanoma, with SK-OV-3 ovarian, in the experiment with U251 CNS and with M14 melanoma was more than 100 µM in each case.
